# Measurements from patent publication US11306092B2, “Amino indole compounds useful as TLR inhibitors” (BRISTOL-MYERS SQUIBB COMPANY, priority 2017, dated 2022).
# Tests used:
# human TLR9 = biological target: T1, human TLR9 (Homo sapiens, UniProt Q9NR96); experiment: TLR9 inhibition reporter assay (HEK-Blue SEAP reporter); format: cell-based; conditions: HEK-Blue cells overexpressing human TLR9; ODN2006 5 nM; 22 hour incubation
# T1 construct: host or cells: HEK-Blue cells
# T1 sequence (Q9NR96 26-1032): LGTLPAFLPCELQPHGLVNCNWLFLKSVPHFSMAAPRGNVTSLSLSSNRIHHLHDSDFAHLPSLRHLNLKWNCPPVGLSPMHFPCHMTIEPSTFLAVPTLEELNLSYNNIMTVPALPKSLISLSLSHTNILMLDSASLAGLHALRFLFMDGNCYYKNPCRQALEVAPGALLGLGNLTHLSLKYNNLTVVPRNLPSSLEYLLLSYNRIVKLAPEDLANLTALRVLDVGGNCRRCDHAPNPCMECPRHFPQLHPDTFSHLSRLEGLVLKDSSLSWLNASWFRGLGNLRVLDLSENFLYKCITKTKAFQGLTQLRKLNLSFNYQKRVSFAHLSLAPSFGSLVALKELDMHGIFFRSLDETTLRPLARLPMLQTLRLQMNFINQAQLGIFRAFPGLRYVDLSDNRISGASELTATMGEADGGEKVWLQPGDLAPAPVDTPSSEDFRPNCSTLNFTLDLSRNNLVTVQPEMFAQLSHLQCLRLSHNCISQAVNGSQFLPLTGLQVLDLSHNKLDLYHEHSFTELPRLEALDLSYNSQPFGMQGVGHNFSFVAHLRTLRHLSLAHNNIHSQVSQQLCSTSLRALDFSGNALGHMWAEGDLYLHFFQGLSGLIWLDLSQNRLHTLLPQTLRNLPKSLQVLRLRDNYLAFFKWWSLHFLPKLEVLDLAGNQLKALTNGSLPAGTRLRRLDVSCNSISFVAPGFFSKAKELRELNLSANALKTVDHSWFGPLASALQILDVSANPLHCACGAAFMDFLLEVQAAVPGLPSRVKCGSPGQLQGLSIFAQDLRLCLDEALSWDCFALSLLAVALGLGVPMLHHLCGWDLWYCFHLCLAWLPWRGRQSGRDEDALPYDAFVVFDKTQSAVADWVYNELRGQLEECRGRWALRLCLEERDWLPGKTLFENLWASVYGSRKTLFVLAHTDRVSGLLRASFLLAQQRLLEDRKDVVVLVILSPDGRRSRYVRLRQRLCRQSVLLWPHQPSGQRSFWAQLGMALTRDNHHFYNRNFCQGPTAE
# Experimental: (§1) TLR7/8/9 Inhibition Reporter Assays
# (§2) HEK-Blue™-cells (Invivogen) overexpressing human TLR7, TLR8 or TLR9 receptors were used for screening inhibitors of these receptors using an inducible SEAP (secreted embryonic alkaline phosphatase) reporter gene under the control of the IFN-β minimal promoter fused to five NF-κB and AP-1-binding sites. Briefly, cells are seeded into Greiner 384 well plates (15000 cells per well for TLR7, 20,000 for TLR8 and 25,000 for TLR9) and then treated with test compounds in DMSO to yield a final dose response concentration range of 0.05 nM-50 μM. After a 30 minute compound pre-treatment at room temperature, the cells are then stimulated with a TLR7 ligand (gardiquimod at a final concentration of 7.5 μM), TLR8 ligand (R848 at a final concentration of 15.9 μM) or TLR9 ligand (ODN2006 at a final concentration of 5 nM) to activate NF-κB and AP-1 which induce the production of SEAP. After a 22 hour incubation at 37° C., 5% CO2, SEAP levels are determined with the addition of HEK-Blue™ Detection reagent (Invivogen), a cell culture medium that allows for detection of SEAP, according to manufacturer's specifications. The percent inhibition is determined as the % reduction in the HEK-Blue signal present in wells treated with agonist plus DMSO alone compared to wells treated with a known inhibitor.
# human TLR7 = biological target: T2, human TLR7 (Homo sapiens, UniProt Q9NYK1); experiment: TLR7 inhibition reporter assay (HEK-Blue SEAP reporter); format: cell-based; conditions: HEK-Blue cells overexpressing human TLR7; gardiquimod 7.5 μM; 22 hour incubation
# T2 construct: host or cells: HEK-Blue cells
# T2 sequence (Q9NYK1 27-1049): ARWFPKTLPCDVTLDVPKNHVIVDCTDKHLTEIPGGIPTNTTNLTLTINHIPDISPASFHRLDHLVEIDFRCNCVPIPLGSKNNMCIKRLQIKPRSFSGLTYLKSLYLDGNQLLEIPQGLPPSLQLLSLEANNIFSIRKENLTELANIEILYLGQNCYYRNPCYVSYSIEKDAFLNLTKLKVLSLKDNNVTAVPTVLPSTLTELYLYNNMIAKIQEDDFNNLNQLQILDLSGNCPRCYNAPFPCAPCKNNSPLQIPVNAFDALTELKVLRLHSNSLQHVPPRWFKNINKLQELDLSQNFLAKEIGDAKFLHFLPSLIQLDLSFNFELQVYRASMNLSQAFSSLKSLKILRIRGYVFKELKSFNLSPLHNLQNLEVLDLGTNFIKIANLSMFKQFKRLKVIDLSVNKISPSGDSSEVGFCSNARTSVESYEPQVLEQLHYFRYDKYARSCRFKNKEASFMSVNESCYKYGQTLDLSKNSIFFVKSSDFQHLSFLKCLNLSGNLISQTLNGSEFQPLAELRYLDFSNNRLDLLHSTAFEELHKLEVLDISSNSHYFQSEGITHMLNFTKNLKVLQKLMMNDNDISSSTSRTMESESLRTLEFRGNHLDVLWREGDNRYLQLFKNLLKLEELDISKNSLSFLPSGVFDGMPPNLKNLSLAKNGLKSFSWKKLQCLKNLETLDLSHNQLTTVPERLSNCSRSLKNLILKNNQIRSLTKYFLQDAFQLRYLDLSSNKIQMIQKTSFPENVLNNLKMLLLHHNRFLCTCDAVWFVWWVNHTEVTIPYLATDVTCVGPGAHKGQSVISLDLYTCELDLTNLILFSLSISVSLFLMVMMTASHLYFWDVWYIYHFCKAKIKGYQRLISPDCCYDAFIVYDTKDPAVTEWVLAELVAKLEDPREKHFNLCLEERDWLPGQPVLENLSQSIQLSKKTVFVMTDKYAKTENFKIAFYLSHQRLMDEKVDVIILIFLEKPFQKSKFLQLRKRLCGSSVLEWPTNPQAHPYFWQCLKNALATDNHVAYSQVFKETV
# Experimental: as §1, §2
Structure (SMILES),IC50 (human TLR9) [nM],IC50 (human TLR7) [nM]
"COc1ccc(-c2[nH]c3ccc(NC4CCC(N5CCN(CC(C)C)CC5)CC4)cc3c2C(C)C)cc1OC (centres unmarked) [Example 51, 2-(3,4-dimethoxyphenyl)-N-(4-(4-isobutylpiperazin-1-yl)cyclohexyl)-3-isopropyl-1H-indol-5-amine]",1400,767
"COc1ccc(-c2[nH]c3ccc(NC4CCC(N5CCN(CC(C)C)CC5)CC4)cc3c2C(C)C)cc1OC (centres unmarked) [Example 52, 2-(3,4-dimethoxyphenyl)-N-(4-(4-isobutylpiperazin-1-yl)cyclohexyl)-3-isopropyl-1H-indol-5-amine]",1580,403
"COc1ccc(-c2[nH]c3ccc(NC4CCC(N5CCN(CC(C)C)CC5)CC4)cc3c2C(C)C)cc1OC (centres unmarked) [Example 53, 2-(3,4-dimethoxyphenyl)-N-(4-(4-isobutylpiperazin-1-yl)cyclohexyl)-3-isopropyl-1H-indol-5-amine]",1210,659
"COCCN1CCN(C2CCC(Nc3ccc4[nH]c(-c5ccc(OC)c(OC)c5)c(C(C)C)c4c3)CC2)CC1 (centres unmarked) [Example 54, 2-(3,4-dimethoxyphenyl)-3-isopropyl-N-(4-(4-(2-methoxyethyl)piperazin-1-yl)cyclohexyl)-1H-indol-5-amine]",970,269
"COc1ccc(-c2[nH]c3ccc(NC4CCC(NCCCN5CCOCC5)CC4)cc3c2C(C)C)cc1OC (centres unmarked) [Example 55, N1-(2-(3,4-dimethoxyphenyl)-3-isopropyl-1H-indol-5-yl)-N4-(3-morpholinopropyl)cyclohexane-1,4-diamine]",631,167
"COc1ccc(-c2[nH]c3ccc(NC4CCC(NCCCN5CCOCC5)CC4)cc3c2C(C)C)cc1OC (centres unmarked) [Example 56, N1-(2-(3,4-dimethoxyphenyl)-3-isopropyl-1H-indol-5-yl)-N4-(3-morpholinopropyl)cyclohexane-1,4-diamine]",590,136
"COc1ccc(-c2[nH]c3ccc(NC4CCC(N5CCN(C6CCCC6)CC5)CC4)cc3c2C(C)C)cc1OC (centres unmarked) [Example 57, N-(4-(4-cyclopentylpiperazin-1-yl)cyclohexyl)-2-(3,4-dimethoxyphenyl)-3-isopropyl-1H-indol-5-amine]",460,353
"COc1ccc(-c2[nH]c3ccc(NC4CCC(N5CCN(C6CCCC6)CC5)CC4)cc3c2C(C)C)cc1OC (centres unmarked) [Example 58, N-(4-(4-cyclopentylpiperazin-1-yl)cyclohexyl)-2-(3,4-dimethoxyphenyl)-3-isopropyl-1H-indol-5-amine]",1080,351
"COc1ccc(-c2[nH]c3ccc(NC4CCC(N5CCN(CCN6CCCC6)CC5)CC4)cc3c2C(C)C)cc1OC (centres unmarked) [Example 63, 2-(3,4-dimethoxyphenyl)-3-isopropyl-N-(4-(4-(2-(pyrrolidin-1-yl)ethyl)piperazin-1-yl)cyclohexyl)-1H-indol-5-amine]",405,257
"COc1ccc(-c2[nH]c3ccc(NC4CCC(N5CCN(CCN6CCCC6)CC5)CC4)cc3c2C(C)C)cc1OC (centres unmarked) [Example 64, 2-(3,4-dimethoxyphenyl)-3-isopropyl-N-(4-(4-(2-(pyrrolidin-1-yl)ethyl)piperazin-1-yl)cyclohexyl)-1H-indol-5-amine]",555,357
"COc1ccc(-c2[nH]c3ccc(NC4CCC(N5CCN(Cc6ccc(C)cc6)CC5)CC4)cc3c2C(C)C)cc1OC (centres unmarked) [Example 65, 2-(3,4-dimethoxyphenyl)-3-isopropyl-N-(4-(4-(4-methylbenzyl)piperazin-1-yl)cyclohexyl)-1H-indol-5-amine]",588,1180
"COc1ccc(-c2[nH]c3ccc(NC4CCC(N5CCN(Cc6ccc(C)cc6)CC5)CC4)cc3c2C(C)C)cc1OC (centres unmarked) [Example 66, 2-(3,4-dimethoxyphenyl)-3-isopropyl-N-(4-(4-(4-methylbenzyl)piperazin-1-yl)cyclohexyl)-1H-indol-5-amine]",583,686

# Further lines, results first:
IC50 (human TLR9) [nM],IC50 (human TLR7) [nM],Structure (SMILES)
589,322,"COc1ccc(-c2[nH]c3ccc(NC4CCC(N5CCN(CCCN6CCCC6)CC5)CC4)cc3c2C(C)C)cc1OC (centres unmarked) [Example 67, 2-(3,4-dimethoxyphenyl)-3-isopropyl-N-(4-(4-(3-(pyrrolidin-1-yl)propyl)piperazin-1-yl)cyclohexyl)-1H-indol-5-amine]"
3860,206,"COc1ccc(-c2[nH]c3ccc(N4CCC(NCCN(C)C)CC4)cc3c2C(C)C)cc1OC [Example 75, N1-(1-(2-(3,4-dimethoxyphenyl)-3-isopropyl-1H-indol-5-yl)piperidin-4-yl)-N2,N2-dimethylethane-1,2-diamine]"
6560,114,"COc1ccc(-c2[nH]c3ccc(N4CCC(N5CCN(C(C)=O)CC5)CC4)cc3c2C(C)C)cc1OC [Example 82, 1-(4-(1-(2-(3,4-dimethoxyphenyl)-3-isopropyl-1H-indol-5-yl)piperidin-4-yl)piperazin-1-yl)ethan-1-one]"
1290,287,"COc1ccc(-c2[nH]c3ccc(N4CCC(N5CCC(N(C)C)CC5)CC4)cc3c2C(C)C)cc1OC [Example 83, 1′-(2-(3,4-dimethoxyphenyl)-3-isopropyl-1H-indol-5-yl)-N,N-dimethyl-[1,4′-bipiperidin]-4-amine]"
9800,337,"COc1ccc(-c2[nH]c3ccc(N4CCC(N5CCN(CC6CC6)CC5)CC4)cc3c2C(C)C)cc1OC [Example 87, 5-(4-(4-(cyclopropylmethyl)piperazin-1-yl)piperidin-1-yl)-2-(3,4-dimethoxyphenyl)-3-isopropyl-1H-indole]"
4640,69,"COc1ccc(-c2[nH]c3ccc(N4CCC(N5CCCN(C(C)=O)CC5)CC4)cc3c2C(C)C)cc1OC [Example 88, 1-(4-(1-(2-(3,4-dimethoxyphenyl)-3-isopropyl-1H-indol-5-yl)piperidin-4-yl)-1,4-diazepan-1-yl)ethan-1-one]"
925,132,"COc1ccc(-c2[nH]c3ccc(N4CCC(N5CCN(C6CCCC6)CC5)CC4)cc3c2C(C)C)cc1OC [Example 93, 5-(4-(4-cyclopentylpiperazin-1-yl)piperidin-1-yl)-2-(3,4-dimethoxyphenyl)-3-isopropyl-1H-indole]"
